Test [1] relates to non-small cell lung cancer (NSCLC) cell lines (H2170, A549, Calu-1). As to the kind of experiment: Isotope tracing ([U-13C] glucose or [U-13C] glutamine) of TCA cycle metabolites in NSCLC cell lines. To be noted: 50 μM for 24 h. The format is cell-based, human. How it is done: (§1) C2C12 cells were maintained at sub-confluence as myoblasts unless otherwise noted. All myoblast experiments were performed in high glucose DMEM supplemented with 10% FBS and 4 mM L-glutamine. For differentiation into myotubes, C2C12 cells were grown to 100% confluence for three days and then washed with PBS and changed into differentiation medium composed of high glucose DMEM supplemented with 2% horse serum (catalog no. 26050070; Gibco), 4 mM L-glutamine and 100× insulin-transferrin-selenium-ethanolamine (ITS-X; catalog no. 51500056; Gibco) for the indicated length of time (3, 5 or 7 days). Differentiation medium was refreshed every day. For non-small cell lung cancer (NSCLC) cell line studies, H2170, A549, and Calu-1 cell lines were thawed and passaged in RPMI-1640 supplemented with 10% FBS before being transitioned to high glucose DMEM supplemented with 10% FBS and 4 mM L-glutamine for several passages prior to experiments. 143B cells were maintained in high glucose DMEM supplemented with sodium pyruvate, 10% FBS and penicillin-streptomycin. All cells routinely tested negative for Mycoplasma.
For mass spectrometric analyses in C2C12 myoblasts and NSCLC cell lines, cells were seeded in six-well plates and medium was changed 24 h later. […] 48 h prior to harvest, myoblasts were supplemented with 1 μg/mL doxycycline to induce shRNA expression. For analysis of myotubes, cells seeded in six-well plates were grown to 100% confluence for 3 days, washed with PBS and changed to differentiation medium that was refreshed every day for 7 days. On the final day of differentiation, cells were washed with PBS and changed to experimental medium described above. For analysis of C2C12 myotube genetic hairpin lines, cells were processed as described above but medium was supplemented with 1 μg/mL doxycycline for the final four days of differentiation to induce shRNA expression. ESCs and NSCLC lines treated with inhibitors were processed as described above but medium was supplemented with DMSO, 50 μM BMS-303141 (catalog no. SML0784; Sigma), 5 mM dichloroacetate (catalog no. 3447795; Sigma) or 10 μM UK-5099 (catalog no. 4186; Tocris) for 24 h prior to harvest. At harvest, metabolites were extracted with 1 mL ice-cold 80% methanol containing 2 μM deuterated 2-hydroxyglutaratc (d-2-hydroxyglutaric-2,3,3,4,4-d5 acid (d5-2HG)). […]
(§2) Gas chromatography-mass spectrometry. […] Samples were analyzed using an Agilent 7890A Gas Chromatograph coupled to an Agilent 5977C mass selective detector. […] Peaks representing compounds of interest were extracted and integrated using the MassHunter software v.B.08 (Agilent Technologies) and then normalized to both the internal standard (d5-2HG) peak area and protein content of triplicate samples as determined by bicinchoninic acid assay (Thermo Fisher Scientific). […]

Test [2] deals with ASNase-expressing 143B human osteosarcoma cells. As to the kind of experiment: [U-13C] asparagine tracing in ASNase-expressing 143B cells. The format is cell-based. The following applies: 50 μM for 24 h (FIGS. 6E and 6F). The procedure: 143B cells were plated in six-well plates; 24 h later, media was changed to DMEM supplemented with 10% dialyzed FBS, 1 mM asparagine and DMSO or 50 μM BMS-303141. After 20 h, media was changed to DMEM supplemented with 10% dialyzed FBS, 1 mM [U-^13C]asparagine and DMSO or 50 μM BMS-303141. Cells were extracted with 300 μL 80% methanol containing Valine-D8 as an internal control. 143B extracts were further processed by LCMS, described below.
Liquid chromatography-mass spectrometry.

Test [3] concerns mouse embryonic stem cells (ESCs). As to the kind of experiment: [U-13C] glucose tracing of TCA cycle metabolites in mouse embryonic stem cells. Type of test: cell-based. The procedure:
Metabolic analyses. […] For mass spectrometric analyses in C2C12 myoblasts and NSCLC cell lines, cells were seeded in six-well plates and medium was changed 24 h later. […] 48 h prior to harvest, myoblasts were supplemented with 1 μg/mL doxycycline to induce shRNA expression. For analysis of myotubes, cells seeded in six-well plates were grown to 100% confluence for 3 days, washed with PBS and changed to differentiation medium that was refreshed every day for 7 days. On the final day of differentiation, cells were washed with PBS and changed to experimental medium described above. For analysis of C2C12 myotube genetic hairpin lines, cells were processed as described above but medium was supplemented with 1 μg/mL doxycycline for the final four days of differentiation to induce shRNA expression. ESCs and NSCLC lines treated with inhibitors were processed as described above but medium was supplemented with DMSO, 50 μM BMS-303141 (catalog no. SML0784; […] Sigma) or 10 μM UK-5099 (catalog no. 4186; Tocris) for 24 h prior to harvest. […] After overnight incubation at -80° C., lysates were collected and centrifuged at 21,000 g for 20 min to remove protein. All extracts were further processed by LCMS (for analysis of NADH, lactate and pyruvate (deuterium labeling and lactate/pyruvate ratio) and succinate (deuterium labeling only) or GCMS (for all other analyses) as described below. Gas chromatography-mass spectrometry. […] Metabolites were further derivatized by adding 80 μl of N-methyl-N-(trimethylsilyl) trifluoroacetamide+1% TCMS (Thermo Fisher Scientific) and 70 μl ethyl acetate (Sigma-Aldrich) and then incubated at 37° C. for 30 min. Samples were analyzed using an Agilent 7890A Gas Chromatograph coupled to an Agilent […] mass selective detector. The gas chromatograph was operated in splitless injection mode with constant helium gas flow at 1 ml min^-1; 1 μl of derivatized metabolites was injected onto an HP-5 ms column and the gas chromatograph oven temperature ramped from 60 to 290° C. for 25 min. Peaks representing compounds of interest were extracted and integrated using the MassHunter software v.B.08 (Agilent Technologies) and then normalized to both the internal standard (d5-2HG) peak area and protein content of triplicate samples as determined by bicinchoninic acid assay (Thermo Fisher Scientific). Steady-state metabolite pool levels were derived by quantifying the following ions: d5-2HG, 354 m/z; αKG, 304 […]; citrate, 465 m/z; fumarate, 245 m/z; malate, 335 m/z; and succinate, 247 m/z. All peaks were manually inspected and verified relative to known spectra for each metabolite. Enrichment of [^13C] or [^2H] was assessed by quantifying the abundance of the following ions: aspartate, 334-346 m/z; citrate, 465-482 m/z; fumarate, 245-254 m/z; and malate, 335-347 m/z. […]

The test system of another test is Rex1::GFPd2 ESCs. As to the kind of experiment: Exit from naïve pluripotency, Rex1::GFPd2 reporter analysis. The format is cell-based, mouse. The following applies: 2i/LIF withdrawal for 40 h; 50 μM (FIG. 4I). The procedure:
2i/LIF-cultured ESCs were seeded at least 24 h prior to being washed with PBS and changed into serum-free maintenance medium without 2i or LIF at the indicated time before harvest (12, 24 or 40 h). Unless otherwise noted, cells were adapted to serum/LIF+2i culture prior to exit from naïve pluripotency.
Rex1::GFPd2 analysis. On the day of analysis, cells were trypsinized and resuspended in FACS buffer (PBS+2% FBS+1 mM EDTA) containing 4,6-diamidino-2-phenylindole (DAPI, 1 μg/mL). […] Viable cells were those excluding DAPI. Rex1::GFPd2 expression was measured by GFP mean fluorescence intensity (MFI) and quantified using FCS Express v7.0.5 or FlowJo v10.8.0.

For a further test, the system named is C2C12 myoblasts. Description: [U-13C] glucose tracing of TCA cycle metabolites in C2C12 myoblasts. Type of test: cell-based, mouse. How it is done:
as §1, with “143B cells were maintained in high glucose DMEM supplemented with sodium pyruvate, 10% FBS and penicillin-streptomycin. All cells routinely tested negative for Mycoplasma.” left out
as §2

The subject of test [4] is Acly-edited ESCs. To be noted: 2i/LIF withdrawal for 40 h; 5 mM sodium acetate (FIG. 12F). The procedure:
Viability assays. Serum/LIF+2i-adapted ESCs were seeded at a density of 24,000 cells per well of a 24-well plate in triplicate or quadruplicate. 24 h later, cells were washed with PBS and changed into either fresh scrum/LIF+2i medium or medium containing a 1:1 mix of glutamine-free DMEM and Neurobasal medium including N-2 supplement, B-27 supplement, 2-mercaptoethanol and 2 mM L-glutamine for 40 h. Cells were evaluated for propidium iodide (PI) on an LSRFortessa flow cytometer using FACSDiva software v8.0 (BD Biosciences). Analysis of PI exclusion was performed with FCS Express v.7.05 or FlowJo v10.8.0.

For test [5], the system named is control and Acly-edited ESCs. How it is done: Quantification of gene expression. RNA was isolated from six-or twelve-well plates using TRIzol (Invitrogen) according to the manufacturer's instructions and 200 ng RNA was used for complementary DNA (cDNA) synthesis using the iScript cDNA Synthesis Kit (Bio-Rad). Quantitative real-time PCR analysis was performed in technical triplicate using QuantStudio 5 or 6 Flex (Applied Biosystems) with Power SYBR Green Master Mix (Thermo Fisher Scientific). All data were generated using cDNA from 3 independent wells for each condition. Actin was used as an endogenous control for all experiments. See Supplementary Table 1 for qRT-PCR primer sequences.

In test [6] the test system is control and Acly-edited ESCs. To be noted: 2i/LIF withdrawal for 40 h with 5 mM sodium acetate, reseeded into 2i and LIF (FIG. 12K). From the text:
Colony formation assay. […] Medium was refreshed every 3 days.

Test [7] concerns Acly-edited ESCs. To be noted: 2i/LIF withdrawal for 40 h, 5 mM sodium acetate (FIG. 12E).
Source text: Western blotting. Protein lysates were extracted in 1×RIPA buffer (Cell Signaling Technology), separated by SDS-polyacrylamide gel electrophoresis and transferred to nitrocellulose membranes (Bio-Rad). For histone blots, cell pellets were flash frozen in ethanol and resuspended in Laemmli buffer for sonication. Samples were mixed with 5% BME and 0.01% bromophenol blue prior to identical separation as for protein lysates. Membranes were blocked in 3% milk in Tris-buffered saline with 0.1% Tween 20 (TBST) or 5% BSA in TBST and incubated at 4° C. with primary antibodies overnight. After TBST washes the next day, membranes were incubated with horseradish peroxidase-conjugated secondary antibodies for at least 2 h, incubated with enhanced chemiluminescence (Thermo Fisher Scientific) and imaged with an SRX-101A X-ray Film Processor (Konica Minolta). […]
Test [8] has as its system control and Acly-edited ESCs. To be noted: labeled acetate, 5 mM; 40 h of 2i/LIF withdrawal (FIG. 12D).
Procedure: Fatty acid analyses. To analyze fatty acids in scrum/LIF+2i-cultured ESCs undergoing exit from pluripotency, ESCs were seeded in maintenance medium in six-well plates overnight. The next day, cells were washed with PBS and changed into medium containing a 1:1 mix of glutamine-free DMEM and Neurobasal medium including N-2 supplement, B-27 supplement, 2-mercaptoethanol and 2 mM L-glutamine. […] At harvest, lysates were collected in PBS and centrifuged at 6,800 g for 5 min to pellet cells. To isolate fatty acids, cell pellets were resuspended in 400 μl HPLC grade methanol followed by 800 μl HPLC grade chloroform and samples were vortexed for 10 min at 4° C. 300 μl HPLC grade water then added to induce phase separation. 800 μl of the bottom chloroform layer was moved to a new tube and lyophilized. Dried samples were saponified by resuspending in 1 ml of 80% methanol with 0.3 M KOH and heating at 80° C. for 1 h in a glass vial. […]
Liquid chromatography-mass spectrometry. […] Metabolite quantitation was performed using a Q Exactive HF-X Hybrid Quadrupole-Orbitrap Mass Spectrometer equipped with an Ion Max API source and H-ESI II probe, coupled to a Vanquish Flex Binary UHPLC system (Thermo Scientific). […] Metabolites were detected over mass range of 70-1050 m/z in full scan positive mode, or SIM in positive mode using a quadrupole isolation window of 0.7 m/z. […]
Another test concerns ESC. To be noted: previous reports (ref 39); cited from earlier work.
Setting [9] is: [U-13C] glucose, three NSCLC cell lines (FIG. 6B).

The text below walks through data of US20240392239A1, “METHODS FOR MODULATING CELL PLURIPOTENCY AND SELF-RENEWAL PROPERTY” (Memorial Sloan-Kettering Cancer Center, priority 2021, published 2024).

With `COc1ccc(-c2ccccc2)cc1NS(=O)(=O)c1cc(Cl)cc(Cl)c1O` [BMS-303141], the “mal+2/cit+2 ratio” value in [1] ([U-13C] glucose, three NSCLC cell lines (FIG. 1E)) is recorded as “increased”. In [1] (setting [9]), the “fraction of citrate m+2” value is listed as “only a minor effect” and the “proportion of malate containing two labeled carbons (malate m+2)” value is “increased”. Further, the glutamine anaplerosis entry in test [1] ([U-13C] glutamine, three NSCLC cell lines (FIG. 6C)) is given as “did not uniformly affect”. In addition, the “ratio of cit+2/cit+4” value in test [2] was “significantly increased”. Besides, the “decrease in enrichment of the m+2 isotopologue of malate relative to citrate (Mal+2/Cit+2)” value in test [3] ([U-13C] glucose, serum/LIF ESCs, 50 μM for 24 h (FIG. 2B)) is recorded as “mitigated”. For the same compound, the “downregulation of Rex1::GFPd2 reporter activity following 2i/LIF withdrawal” value in the test with Rex1::GFPd2 ESCs is given as “almost completely prevented”.
With `N#C/C(=C\c1cn(-c2ccccc2)c2ccccc12)C(=O)O` [UK-5099], the “incorporation of glucose-derived carbons into TCA cycle metabolites” value is recorded as “reduced” in test [3] (ESCs, 10 μM UK-5099 (MPCi) for 24 h (FIG. 10E)) and “reduced” in the test with C2C12 myoblasts (10 μM UK-5099 (MPCi) for 24 h (FIG. 10C)). For the same compound, the “mal+2/cit+2 ratio” value in [3] (ESCs, 10 μM UK-5099 (MPCi) for 24 h (FIG. 10F)) is reported as “repressed”; in the test on C2C12 myoblasts (10 μM UK-5099 (MPCi) for 24 h (FIG. 10D)), “repressed”.
As for `CC(=O)[O-].[Na+]` [acetate, sodium acetate], the “processivity (malate m+2/citrate m+2 ratio)” value in test [3] (S/L-cultured ESCs, 5 mM sodium acetate for 24 h (FIGS. 15A-15D)) is reported as “enhances”. Also, the “decline in viability observed in Acly-edited clones” value with Acly-edited ESCs [4] is reported as “only minimally rescued”. In test [5] (2i/LIF withdrawal for 40 h, 5 mM sodium acetate (FIGS. 12I-12J)), the “markers of naïve pluripotency” value is on record as “tended to increase”. The “effects of ACL loss on exit from pluripotency” value in [5] (Acly-edited ESCs, 5 mM sodium acetate, qRT-PCR, Rex1::GFPd2 MFI and AP-positive colonies (FIGS. 12I-12K)) is “does not reverse”. Further, in test [6], the “colony formation ability (AP-positive colonies)” value is “tended to increase”. Also, in the test with Acly-edited ESCs [7], the histone acetylation result is “restored”. In addition, in test [8], the “de novo lipid synthesis (fractional labeling of palmitate)” value is “contributed”. In the test on ESC, the ESC self-renewal result is “promotes”.
